Key:
TTK = TTK (Homo sapiens, UniProt P33981); test: biochemical; parameters: species or system HEK293/K-562/placenta mixed human extract; Kinobeads chemoproteomic competition binding, quantified by TMT LC-MS/MS, dose response up to 20 uM
SRC = SRC (Homo sapiens, UniProt P12931); test: biochemical; parameters: species or system HEK293/K-562/placenta mixed human extract; Kinobeads chemoproteomic competition binding, quantified by TMT LC-MS/MS, dose response up to 20 uM
CSNK2B = CSNK2B (Homo sapiens, UniProt P67870); test: biochemical; parameters: species or system HEK293/K-562/placenta mixed human extract; Kinobeads chemoproteomic competition binding, quantified by TMT LC-MS/MS, dose response up to 20 uM
EPHA7 = EPHA7 (Homo sapiens, UniProt Q15375); test: biochemical; parameters: species or system HEK293/K-562/placenta mixed human extract; Kinobeads chemoproteomic competition binding, quantified by TMT LC-MS/MS, dose response up to 20 uM
hERG = molecular target: T1, hERG (Homo sapiens, UniProt Q12809); test: in vitro hERG assay, standard protocol; assay type: cell-based; conditions: read-out: 1
T1 construct: gene KCNH2; in vitro hERG assay, standard protocol
Source text: in vitro hERG assay, standard protocol on hERG

CYP3A4 = CYP3A4 (Homo sapiens, UniProt P08684); test: midazolam marker-substrate inhibition assay, LC-MS/MS; assay type: biochemical
Source text: midazolam marker-substrate inhibition assay, LC-MS/MS on CYP3A4

Chain of SRC (P12931 whole entry): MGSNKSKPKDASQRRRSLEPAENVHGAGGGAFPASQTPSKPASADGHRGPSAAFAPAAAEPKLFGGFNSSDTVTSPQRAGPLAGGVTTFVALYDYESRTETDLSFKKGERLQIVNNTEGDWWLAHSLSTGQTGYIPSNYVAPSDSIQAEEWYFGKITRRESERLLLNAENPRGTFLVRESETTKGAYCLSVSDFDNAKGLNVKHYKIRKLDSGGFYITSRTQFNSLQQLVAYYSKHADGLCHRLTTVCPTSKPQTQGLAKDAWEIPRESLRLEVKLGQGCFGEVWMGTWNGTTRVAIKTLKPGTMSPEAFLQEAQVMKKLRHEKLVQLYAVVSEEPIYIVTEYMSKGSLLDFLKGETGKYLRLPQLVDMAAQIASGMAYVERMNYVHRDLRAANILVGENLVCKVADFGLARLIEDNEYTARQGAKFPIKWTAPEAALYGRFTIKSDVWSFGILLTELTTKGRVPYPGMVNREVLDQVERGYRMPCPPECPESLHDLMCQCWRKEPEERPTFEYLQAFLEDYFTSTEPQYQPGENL
T1 sequence (Q12809 whole entry): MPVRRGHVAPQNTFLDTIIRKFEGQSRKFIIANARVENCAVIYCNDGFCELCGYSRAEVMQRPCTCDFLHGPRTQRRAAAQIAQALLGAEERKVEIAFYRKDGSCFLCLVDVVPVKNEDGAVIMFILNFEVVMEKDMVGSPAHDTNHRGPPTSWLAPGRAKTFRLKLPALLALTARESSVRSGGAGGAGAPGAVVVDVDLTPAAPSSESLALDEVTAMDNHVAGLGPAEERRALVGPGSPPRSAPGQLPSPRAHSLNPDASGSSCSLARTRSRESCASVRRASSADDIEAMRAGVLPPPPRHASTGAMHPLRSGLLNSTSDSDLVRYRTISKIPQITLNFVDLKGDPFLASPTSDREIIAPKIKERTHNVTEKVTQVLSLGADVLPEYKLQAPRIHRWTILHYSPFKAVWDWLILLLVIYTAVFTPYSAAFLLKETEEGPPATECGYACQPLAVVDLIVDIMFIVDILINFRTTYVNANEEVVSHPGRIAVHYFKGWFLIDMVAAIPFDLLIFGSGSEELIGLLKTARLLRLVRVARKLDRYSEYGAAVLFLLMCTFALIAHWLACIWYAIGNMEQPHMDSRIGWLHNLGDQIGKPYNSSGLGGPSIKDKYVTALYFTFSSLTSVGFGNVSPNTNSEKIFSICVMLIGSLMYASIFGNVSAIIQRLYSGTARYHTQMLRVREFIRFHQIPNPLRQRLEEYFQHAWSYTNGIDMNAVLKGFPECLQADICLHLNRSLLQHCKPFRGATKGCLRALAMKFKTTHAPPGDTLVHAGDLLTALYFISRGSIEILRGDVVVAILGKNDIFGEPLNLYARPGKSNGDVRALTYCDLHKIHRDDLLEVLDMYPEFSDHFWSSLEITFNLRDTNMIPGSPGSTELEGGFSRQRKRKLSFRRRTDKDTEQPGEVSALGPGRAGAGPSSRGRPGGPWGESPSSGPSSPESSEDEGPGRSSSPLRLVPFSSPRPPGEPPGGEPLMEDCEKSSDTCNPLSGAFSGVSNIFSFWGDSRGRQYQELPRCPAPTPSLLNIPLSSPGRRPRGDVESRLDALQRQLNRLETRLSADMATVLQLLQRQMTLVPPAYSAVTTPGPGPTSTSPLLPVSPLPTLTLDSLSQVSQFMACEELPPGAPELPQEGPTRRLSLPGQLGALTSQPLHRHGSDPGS
Chain of TTK (P33981 whole entry): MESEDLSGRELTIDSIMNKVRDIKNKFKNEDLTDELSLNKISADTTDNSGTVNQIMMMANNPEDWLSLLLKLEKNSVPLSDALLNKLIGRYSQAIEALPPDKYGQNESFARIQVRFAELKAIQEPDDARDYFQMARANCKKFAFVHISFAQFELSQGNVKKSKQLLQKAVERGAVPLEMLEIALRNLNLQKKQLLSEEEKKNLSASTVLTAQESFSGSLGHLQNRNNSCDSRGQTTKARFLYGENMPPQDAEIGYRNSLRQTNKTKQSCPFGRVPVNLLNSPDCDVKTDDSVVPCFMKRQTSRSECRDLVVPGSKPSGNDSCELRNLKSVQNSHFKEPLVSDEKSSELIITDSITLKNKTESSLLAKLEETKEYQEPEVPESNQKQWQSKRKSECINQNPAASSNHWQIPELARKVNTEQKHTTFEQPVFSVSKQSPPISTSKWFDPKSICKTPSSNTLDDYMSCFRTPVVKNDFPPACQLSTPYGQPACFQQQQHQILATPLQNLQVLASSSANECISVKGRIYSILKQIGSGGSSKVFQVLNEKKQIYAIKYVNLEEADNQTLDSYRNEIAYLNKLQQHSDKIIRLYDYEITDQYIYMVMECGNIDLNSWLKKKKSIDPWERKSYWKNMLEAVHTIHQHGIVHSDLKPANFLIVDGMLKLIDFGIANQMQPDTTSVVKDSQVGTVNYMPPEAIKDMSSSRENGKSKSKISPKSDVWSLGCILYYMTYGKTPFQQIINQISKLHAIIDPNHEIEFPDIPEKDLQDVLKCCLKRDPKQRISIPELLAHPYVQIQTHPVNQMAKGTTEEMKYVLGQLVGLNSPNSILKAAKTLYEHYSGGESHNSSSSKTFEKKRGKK
Chain of EPHA7 (Q15375 whole entry): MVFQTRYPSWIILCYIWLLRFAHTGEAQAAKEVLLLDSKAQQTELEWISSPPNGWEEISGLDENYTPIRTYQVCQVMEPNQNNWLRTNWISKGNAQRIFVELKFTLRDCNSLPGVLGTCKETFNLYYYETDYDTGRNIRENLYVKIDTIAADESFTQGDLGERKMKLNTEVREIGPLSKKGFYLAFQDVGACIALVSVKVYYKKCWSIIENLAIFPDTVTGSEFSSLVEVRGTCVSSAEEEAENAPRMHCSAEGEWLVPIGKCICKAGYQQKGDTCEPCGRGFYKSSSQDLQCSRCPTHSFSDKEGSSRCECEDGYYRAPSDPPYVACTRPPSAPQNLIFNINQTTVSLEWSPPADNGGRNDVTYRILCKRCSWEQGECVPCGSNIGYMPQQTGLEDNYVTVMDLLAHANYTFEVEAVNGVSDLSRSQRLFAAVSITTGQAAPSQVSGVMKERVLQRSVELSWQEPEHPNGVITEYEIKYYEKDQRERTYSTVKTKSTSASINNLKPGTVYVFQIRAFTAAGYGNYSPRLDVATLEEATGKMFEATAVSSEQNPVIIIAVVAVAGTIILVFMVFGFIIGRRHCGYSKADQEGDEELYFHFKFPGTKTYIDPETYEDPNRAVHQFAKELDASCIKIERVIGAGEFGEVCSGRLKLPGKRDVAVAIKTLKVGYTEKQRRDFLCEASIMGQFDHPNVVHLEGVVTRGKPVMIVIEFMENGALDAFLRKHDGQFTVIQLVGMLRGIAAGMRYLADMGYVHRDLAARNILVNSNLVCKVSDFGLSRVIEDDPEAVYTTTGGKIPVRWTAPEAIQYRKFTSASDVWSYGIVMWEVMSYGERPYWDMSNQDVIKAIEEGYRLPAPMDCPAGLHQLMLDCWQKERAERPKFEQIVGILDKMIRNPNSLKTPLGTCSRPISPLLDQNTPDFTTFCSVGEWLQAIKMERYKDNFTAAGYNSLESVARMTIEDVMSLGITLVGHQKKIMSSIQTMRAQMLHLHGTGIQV
Chain of CYP3A4 (P08684 2-503): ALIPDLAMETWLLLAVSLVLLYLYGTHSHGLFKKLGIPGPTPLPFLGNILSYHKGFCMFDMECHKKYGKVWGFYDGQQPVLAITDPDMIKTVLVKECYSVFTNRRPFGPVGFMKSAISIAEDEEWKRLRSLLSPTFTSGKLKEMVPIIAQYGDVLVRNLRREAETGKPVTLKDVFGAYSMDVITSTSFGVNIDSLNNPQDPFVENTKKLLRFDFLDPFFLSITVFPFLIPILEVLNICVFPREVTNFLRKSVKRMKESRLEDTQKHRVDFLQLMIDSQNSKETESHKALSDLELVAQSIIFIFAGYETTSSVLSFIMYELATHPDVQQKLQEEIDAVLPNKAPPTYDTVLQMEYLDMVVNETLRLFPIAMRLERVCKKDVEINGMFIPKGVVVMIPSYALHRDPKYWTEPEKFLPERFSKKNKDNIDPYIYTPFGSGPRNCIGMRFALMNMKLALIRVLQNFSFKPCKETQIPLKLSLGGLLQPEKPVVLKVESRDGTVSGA
Chain of CSNK2B (P67870 whole entry): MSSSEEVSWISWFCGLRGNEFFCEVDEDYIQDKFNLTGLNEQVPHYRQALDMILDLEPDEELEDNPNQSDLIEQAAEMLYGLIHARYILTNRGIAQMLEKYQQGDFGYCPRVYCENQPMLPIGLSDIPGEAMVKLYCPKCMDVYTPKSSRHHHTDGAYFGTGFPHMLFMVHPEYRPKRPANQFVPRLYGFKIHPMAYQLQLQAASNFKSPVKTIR

`COc1nc(N[C@H]2CC[C@H](NS(=O)(=O)CC(C)C)CC2)nc2[nH]nc(N3CCOC[C@H]3C)c12` [compound 39, N-(trans-4-((4-Methoxy-3-((R)-3-methylmorpholino)-1H-pyrazolo[3,4-d]pyrimidin-6-yl)amino)cyclohexyl)-2-methylpropane-1-sulfonamide] was tested, and the IC50 (TTK) was no less than 20 µM, the IC50 (SRC) was no less than 20 µM and the IC50 (CSNK2B) was no less than 20 µM. For the same compound, the IC50 (EPHA7) was no less than 20 µM, the IC50 (hERG) was greater than 30 µM and the IC50 (CYP3A4) was greater than 39.8 µM.

— article PMC6407917, “Identification of GSK3186899/DDD853651 as a Preclinical Development Candidate for the Treatment of Visceral Leishmaniasis” (Journal of Medicinal Chemistry, 2018)
